Results as given in patent US20140303092A1 (CHIMERIX, INC., priority 2011, published 2014).

Assay: Study HDP-CDV-201: safety and tolerability (adverse events, laboratory abnormalities, discontinuations)
Format: in vivo, human (adult allogeneic HSCT recipients)
Description: Clinical Studies of HDP-CDV were performed and described in detail in the following Examples. For example, HDP-CDV-201 is a placebo-controlled, dose-escalating trial in HSCT CMV (R+) recipients, evaluating the ability of HDP-CDV to prevent or control CMV infection was carried out. Five cohorts were established in which participants or subjects received either placebo or the HDP-CDV orally, in doses ranging from 40 mg weekly (QW) to 200 mg twice weekly (BIW). Subjects who were post-HSCT were enrolled at the time of engraftment and randomized to HDP-CDV or placebo (3 to 1 ratio) and received blinded therapy until approximately 100 day post-transplantation. HDP-CDV doses were 40 mg QW, 100 mg QW, 200 mg QW, 200 mg BIW and 100 mg BIW. Escalation to the next dose was decided by the data monitoring committee after review of the safety data from the previous Cohort. Subjects who developed CMV disease or CMV infection requiring pre-emptive therapy with local standard of care were discontinued from blinded therapy and followed for 4 weeks. Subjects who completed treatment with blinded therapy were followed for 8 weeks post-therapy.
Data from Study HDP-CDV-201 also provided characterization of the safety and tolerability profile of HDP-CDV when administered for the prevention or control of CMV infection in high risk (R^+) post-HSCT adult subjects.
The Safety population (SAFETY) included all randomized subjects who took at least one dose of study treatment. This population was used to summarize safety outcomes based on the treatment actually received, in cases where a subject was treated contrary to the randomization schedule.
The safety and tolerability profile of HDP-CDV, including subject demographics and Baseline characteristics; the AE profile; and laboratory abnormalities of interest were analyzed in the cohorts followed in this investigation.
Subjects completing the treatment period received a full course of study medication; those completing the entire study attended visits through 8 weeks of follow up. Subjects who discontinued treatment may have done so for protocol specified reasons (e.g. development of clinically significant CMV infection requiring preemptive treatment with excluded anti-CMV medications) or for other reasons (e.g., withdrawal, adverse events, loss to follow-up). The disposition of subjects in Study HDP-CDV-201 during the double-blind, placebo-controlled treatment period (through Week 11) is listed by dosing Cohort in TABLE 23.
Adverse events were examined by severity to ensure that all safety signals were identified in this study population. Because of the frequency of events in HSCT recipients, particular attention was given to evaluation of Grade 3 […], 4 (severe), and 5 (fatal) adverse events.
Only those preferred terms for which at least one Grade 3 or higher event was experienced in any treatment group are listed. Cytomegalovirus-related AEs are excluded from this analysis.
HDP-CDV is a lipid conjugate of CDV. Because CDV is known to have adverse effects on renal function and bone marrow, decreased GFR and persistent neutropenia were identified as AEs of special interest. Key renal and hematological (TABLE 30) laboratory parameters were measured and listed below by Study HDP-CDV-201 treatment groups. TABLE 30 includes abnormal levels of serum creatinine, neutrophils, platelets, WBCs, and hemoglobin and includes data at Screening and during the treatment period.
A common metric for unit based dosing of medications is by weight (mg/kg). When the distribution of weights was examined for all subjects participating in the study, the median was 78 kg and the lower 25th percentile weight was approximately 65 kg, which translates to a cut-off of ˜3 mg/kg for a 200 mg total weekly dose. Based upon this approach, a cut-off of 3 mg/kg was used to assess the frequency of diarrhea and associated GI AEs reported for the subjects in Cohorts 3 or 4a (TABLE 40).

[1] = Cohort 4A, 100 mg BIW, through Week 11

For `CCCCCCCCCCCCCCCCOCCCOP(=O)(O)COC(CO)Cn1ccc(N)nc1=O` (stereo not shown) [HDP-CDV], the “TEAE Cytomegalovirus viremia” value (Cohort 4A, 100 mg BIW, N = 50) was 6 (12.0%) n (%), the “TEAE Decreased appetite” value (Cohort 4A, 100 mg BIW, N = 50) was 9 (18.0%) n (%) and the “TEAE Diarrhoea” value (Cohort 4A, 100 mg BIW, N = 50) was 26 (52.0%) n (%). For the same compound, the “TEAE Dysgeusia” value (Cohort 4A, 100 mg BIW, N = 50) was 4 (8.0%) n (%), the “TEAE Fatigue” value (Cohort 4A, 100 mg BIW, N = 50) was 9 (18.0%) n (%) and the “TEAE GI Reflux Disease” value (Cohort 4A, 100 mg BIW, N = 50) was 0 n (%). For the same compound, the “TEAE Gamma-glutamyltransferase increased” value (Cohort 4A, 100 mg BIW, N = 50) was 4 (8.0%) n (%), the “TEAE Generalized oedema” value (Cohort 4A, 100 mg BIW, N = 50) was 1 (2.0%) n (%) and the “TEAE Hyperbilirubinaemia” value (Cohort 4A, 100 mg BIW, N = 50) was 3 (6.0%) n (%). The “TEAE Hyperglycaemia” value (Cohort 4A, 100 mg BIW, N = 50) was 9 (18.0%) n (%), the “TEAE Hyperkalemia” value (Cohort 4A, 100 mg BIW, N = 50) was 3 (6.0%) n (%) and the “TEAE Hypocalcaemia” value (Cohort 4A, 100 mg BIW, N = 50) was 2 (4.0%) n (%). The “TEAE Hypokalaemia” value (Cohort 4A, 100 mg BIW, N = 50) was 8 (16.0%) n (%), the “TEAE Hyponatraemia” value (Cohort 4A, 100 mg BIW, N = 50) was 1 (2.0%) n (%) and the “TEAE Increased leukocytosis” value (Cohort 4A, 100 mg BIW, N = 50) was 2 (4.0%) n (%). The “TEAE Insomnia” value (Cohort 4A, 100 mg BIW, N = 50) was 9 (18.0%) n (%), the “TEAE Liver function test abnormal” value (Cohort 4A, 100 mg BIW, N = 50) was 2 (4.0%) n (%) and the “TEAE Malnutrition” value (Cohort 4A, 100 mg BIW, N = 50) was 1 (2.0%) n (%). The “TEAE Nausea” value (Cohort 4A, 100 mg BIW, N = 50) was 17 (34.0%) n (%), the “TEAE Neutropenia” value (Cohort 4A, 100 mg BIW, N = 50) was 10 (20.0%) n (%) and the “TEAE Oedema peripheral” value (Cohort 4A, 100 mg BIW, N = 50) was 8 (16.0%) n (%). The “TEAE Oral Candidiasis” value (Cohort 4A, 100 mg BIW, N = 50) was 6 (12.0%) n (%), the “TEAE Pneumonia” value (Cohort 4A, 100 mg BIW, N = 50) was 5 (10.0%) n (%) and the “TEAE Pyrexia” value (Cohort 4A, 100 mg BIW, N = 50) was 10 (20.0%) n (%). The “TEAE Recurrent flatulence” value (Cohort 4A, 100 mg BIW, N = 50) was 3 (6.0%) n (%), the “TEAE Renal Failure” value (Cohort 4A, 100 mg BIW, N = 50) was 5 (10.0%) n (%) and the “TEAE Staphylococcal Bacteremia” value (Cohort 4A, 100 mg BIW, N = 50) was 6 (12.0%) n (%). The “TEAE Thrombocytopenia” value (Cohort 4A, 100 mg BIW, N = 50) was 7 (14.0%) n (%), the “TEAE Tremor” value (Cohort 4A, 100 mg BIW, N = 50) was 1 (2.0%) n (%) and the “TEAE Vomiting” value (Cohort 4A, 100 mg BIW, N = 50) was 22 (44.0%) n (%). For the same compound, the “Vomiting leading to study drug withdrawal” value (Cohort 4A, 100 mg BIW, N = 50) was 1 (2.0%), the “All AEs, Grade 5 (deaths)” value (Cohort 4A, 100 mg BIW, N = 50, entire study duration) was 5 (10.0%) and the Subjects completed treatment [1] was 30 (60.0%) n (%). For the same compound, the “Subjects who permanently discontinued treatment” value [1] was 20 (40.0%) n (%), the “Abnormal ALT >3-5x ULN, Any Time Between Week 2 and Week 10, subjects” value (Cohort 4A, >3.0 mg/kg/wk) was 4 (40.0%) and the “Abnormal ALT >3-5x ULN, Screening, subjects” value (Cohort 4A, >3.0 mg/kg/wk) was 0. For the same compound, the “Abnormal ALT >5-10x ULN, Any Time Between Week 2 and Week 10, subjects” value (Cohort 4A, >3.0 mg/kg/wk) was 1 (10.0%), the “Abnormal ALT >5-10x ULN, Screening, subjects” value (Cohort 4A, >3.0 mg/kg/wk) was 0 and the “Abnormal ALT >10-20x ULN, Any Time Between Week 2 and Week 10, subjects” value (Cohort 4A, >3.0 mg/kg/wk) was 0. The “Abnormal ALT >10-20x ULN, Screening, subjects” value (Cohort 4A, >3.0 mg/kg/wk) was 0, the “Abnormal ALT >20x ULN, Any Time Between Week 2 and Week 10, subjects” value (Cohort 4A, >3.0 mg/kg/wk) was 1 (10.0%) and the “Abnormal ALT >20x ULN, Screening, subjects” value (Cohort 4A, >3.0 mg/kg/wk) was 0. The “Abnormal ALT >3-5x ULN, Any Time Between Week 2 and Week 10, subjects” value (Cohort 4A, ≦3.0 mg/kg/wk) was 6 (15.0%), the “Abnormal ALT >3-5x ULN, Screening, subjects” value (Cohort 4A, ≦3.0 mg/kg/wk) was 1 (2.8%) and the “Abnormal ALT >5-10x ULN, Any Time Between Week 2 and Week 10, subjects” value (Cohort 4A, ≦3.0 mg/kg/wk) was 3 (7.5%). For the same compound, the “Abnormal ALT >5-10x ULN, Screening, subjects” value (Cohort 4A, ≦3.0 mg/kg/wk) was 1 (2.8%), the “Abnormal ALT >10-20x ULN, Any Time Between Week 2 and Week 10, subjects” value (Cohort 4A, ≦3.0 mg/kg/wk) was 1 (2.5%) and the “Abnormal ALT >10-20x ULN, Screening, subjects” value (Cohort 4A, ≦3.0 mg/kg/wk) was 1 (2.8%). The “Abnormal ALT >20x ULN, Any Time Between Week 2 and Week 10, subjects” value (Cohort 4A, ≦3.0 mg/kg/wk) was 0, the “Abnormal ALT >20x ULN, Screening, subjects” value (Cohort 4A, ≦3.0 mg/kg/wk) was 0 and the “Grade of hepatobiliary AE cholecystitis, subject 4058” value (Cohort 4a) was 3. The “Grade of hepatobiliary AE hyperbilirubinemia, subject 4080” value (Cohort 4a) was 1, the “Grade of hepatobiliary AE hyperbilirubinemia, subject 4090” value (Cohort 4a) was 2 and the “Grade of hepatobiliary AE worsening hyperbilirubinemia, subject 4109” value (Cohort 4a) was 1. For the same compound, the “Outcome of hepatobiliary AE cholecystitis, subject 4058” value (Cohort 4a) was “recovered/resolved”.
